# Test results published in PubChem BioAssay (NCI).
#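 Step 1: Grow cells in 96-well plates. Step 2: Expose to compound for 48 hours at 5 concentrations. Step 3: Interpolate endpoints linearly; if unreached, use highest concentration. At the TGI there is no net growth.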
# Legend:
# Test in all cases: DTP human tumour cell line panel, 48 h
# NCI-H522 lung = test system: NCI-H522 lung
# COLO 205 colon = test system: COLO 205 colon
# M14 melanoma = test system: M14 melanoma
# NCI/ADR-RES ovarian = test system: NCI/ADR-RES ovarian
# DU-145 prostate = test system: DU-145 prostate
# LOX IMVI melanoma = test system: LOX IMVI melanoma
# NCI-H23 lung = test system: NCI-H23 lung
# KM12 colon = test system: KM12 colon
# UACC-62 melanoma = test system: UACC-62 melanoma
# 786-0 renal = test system: 786-0 renal
SMILES,TGI (NCI-H522 lung) [µM],TGI (COLO 205 colon) [µM],TGI (M14 melanoma) [µM],TGI (NCI/ADR-RES ovarian) [µM],TGI (DU-145 prostate) [µM],TGI (LOX IMVI melanoma) [µM],TGI (NCI-H23 lung) [µM],TGI (KM12 colon) [µM],TGI (UACC-62 melanoma) [µM],TGI (786-0 renal) [µM]
CN(C)c1ccc(C(=C2C=CC(=[N+](C)C)C=C2)c2c(O)c(S(=O)(=O)[O-])cc3cc(S(=O)(=O)O)ccc23)cc1,> 100,> 100,> 100,> 100,> 100,> 100,> 100,> 100,> 100,> 100
CCCCc1ccc(Nc2nc(N)c3[nH]cnc3n2)cc1,28.8,38.1,88,37.2,56.7,33.3,32.8,36.5,35.3,33.2
O=c1[nH]/c(=C/c2cccs2)c(=O)[nH]/c1=C/c1ccc(OCc2ccccc2)cn1,0.0998,12.5,0.0381,0.475,5.04,> 100,1.7,26.3,40.3,25.6
O=C1NC(N2CCOCC2)=N/C1=C\c1ccccc1,> 100,> 100,> 100,> 100,> 100,> 100,> 100,> 100,> 100,> 100
CC1CN=C(c2ccc3c(c2)Cc2cc(C4=NCC(C)N4)ccc2-3)N1 (configuration not stated),57.4,> 100,> 100,> 100,> 100,> 100,> 100,56,99,> 100
O=C1CCCc2ccc3c(c21)CC1(Cc2cc4c(cc2C1)CCCC4)C3,35.5,31.1,33.2,> 100,> 100,28.5,49,66.3,49.2,33
Cc1cc(S(=O)(=O)Nc2nc(N)n(-c3ccccc3)n2)c(S)cc1Cl,> 100,> 100,> 100,> 100,> 100,> 100,–,> 100,> 100,> 100
CSc1nc(NC2CC2)c2c(n1)Sc1nc3ccccc3n1N=C2,> 100,> 100,> 100,69.7,46.1,> 100,> 100,> 100,76.9,21
COC(=O)[C@@]12CC3CN(Cc4c1[nH]c1ccccc41)C2CC3=O,> 100,> 100,> 100,> 100,> 100,> 100,> 100,> 100,> 100,> 100
O=C(O)CC(Cc1ccccc1)C(=O)O (configuration not stated),> 100,> 100,> 100,> 100,> 100,> 100,> 100,> 100,> 100,> 100
COc1c2c(cc3oc(=O)ccc13)OC(C)(C)C=C2,63.9,73.6,48.4,70.6,55.9,41.8,60.1,48.5,42.2,63.8
Cc1cc(C)c2c(=O)n(CC(O)CN3CCN(c4ncccn4)CC3)sc2n1 (configuration not stated),26.6,33,29.1,78,30.2,33.7,31.6,44.6,31.6,27.6
O=c1[nH]nc(Nc2ccccc2)c2nnn(Cc3ccccc3)c12,> 100,> 100,> 100,> 100,> 100,> 100,> 100,> 100,> 100,> 100
Cc1cc2nc(N)n[n+]([O-])c2cc1C,> 100,> 100,> 100,> 100,> 100,> 100,> 100,> 100,> 100,> 100
C=CCCCN1C(=O)C2C3c4ccccc4C(C=O)(c4ccccc43)C2C1=O (configuration not stated),25.7,25.2,–,58.2,26.1,22.1,33,21.6,36.6,26.6
O=C(NC12CC3CC(CC(C3)C1)C2)n1cnc2cncnc21,53.8,37.4,> 100,> 100,> 100,92,> 100,> 100,> 100,> 100
COc1cc(C(C)(C)C)c(OC(=O)/C=C/C(=O)O/C=C/[N+](=O)[O-])c(C(C)(C)C)c1,85.7,> 100,65.6,57.8,> 100,75.6,42.6,38.5,> 100,> 100
NCCCCN(CCCN)C(=O)OCc1ccccc1,> 100,> 100,> 100,> 100,> 100,–,> 100,> 100,> 100,> 100
CCOC(=O)C(C(N)=O)c1nc2cc([N+](=O)[O-])ccc2nc1/C=C(\O)c1ccc(C)cc1 (configuration not stated),47.8,> 93.2,> 100,53,> 100,57.4,34.3,> 100,> 72.3,28.7
CS(=O)(=O)c1ccc(C2=C(c3ccccc3)C(=O)OC2)cc1,> 100,> 100,> 100,> 100,> 100,> 100,> 100,> 100,> 100,> 100
CCCc1c(OC)c(O)c2c(=O)cc(OC)c3c4c(OC)cc(=O)c5c(O)c(OC)c(CCC)c(c1c23)c54,9.53,14.9,20.4,25.1,13.2,4.91,26.6,53.7,59.9,13.5
